The results in this text go back to ChEMBL document CHEMBL1150037, “Calcineurin has a very tight-binding pocket for the side chain of residue 4 of cyclosporin” (1994).

One experiment is filed under the species Mus musculus. Briefly: Immunosuppressive activity by mouse mixed lymphocyte reaction (MLR_M) relative to cyclosporin as 1. Format: functional.
For experiment [1], the target named is Peptidyl-prolyl cis-trans isomerase A (Rattus norvegicus) (UniProt P10111). The experiment in a line: In vitro affinity towards cyclophilin A was determined under competitive ELISA systems using protein-conjugated ligand CsA.
Peptidyl-prolyl cis-trans isomerase A (Rattus norvegicus), sequence (P10111 whole entry): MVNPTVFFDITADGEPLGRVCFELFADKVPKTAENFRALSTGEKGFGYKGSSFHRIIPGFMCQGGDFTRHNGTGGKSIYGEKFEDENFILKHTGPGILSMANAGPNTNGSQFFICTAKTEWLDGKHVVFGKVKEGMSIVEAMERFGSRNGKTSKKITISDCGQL
The nature of experiment [2]: Immunosuppressive activity with the help of a reporter gene assay for IL-2 (IL2-RGA) relative to cyclosporin as 1. Format: functional.

Consider `C/C=C/C[C@@H](C)[C@@H](O)[C@H]1C(=O)N[C@@H](CC)C(=O)N(C)CC(=O)N(C)[C@@H](CC)C(=O)N[C@@H](C(C)C)C(=O)N(C)[C@@H](CC(C)C)C(=O)N[C@@H](C)C(=O)N[C@H](C)C(=O)N(C)[C@@H](CC(C)C)C(=O)N(C)[C@@H](CC(C)C)C(=O)N(C)C(C(C)C)C(=O)N1C` (single isomer, unassigned), for which the “Relative IC50” value came out at 65 in the experiment listed under Mus musculus, 1.2 in experiment [1] and 163 in experiment [2].

On to `C/C=C/C[C@@H](C)[C@@H](O)[C@H]1C(=O)N[C@@H](CC)C(=O)N(C)CC(=O)N(C)[C@@H](CC(C)(C)F)C(=O)N[C@@H](C(C)C)C(=O)N(C)[C@@H](CC(C)C)C(=O)N[C@@H](C)C(=O)N[C@H](C)C(=O)N(C)[C@@H](CC(C)C)C(=O)N(C)[C@@H](CC(C)C)C(=O)N(C)[C@@H](C(C)C)C(=O)N1C`, for which the “Relative IC50” value in the experiment listed under Mus musculus turned out to be 25; in experiment [1], 2.1; in experiment [2] it was 7.

`C/C=C/C[C@@H](C)[C@@H](O)[C@H]1C(=O)N[C@@H](CC)C(=O)N(C)CC(=O)N(C)[C@@H](CCC(C)C)C(=O)N[C@@H](C(C)C)C(=O)N(C)[C@@H](CC(C)C)C(=O)N[C@@H](C)C(=O)N[C@H](C)C(=O)N(C)[C@@H](CC(C)C)C(=O)N(C)[C@@H](CC(C)C)C(=O)N(C)C(C(C)C)C(=O)N1C` (single isomer, unassigned): the “Relative IC50” value in the experiment filed under Mus musculus came to 3.5; in experiment [1], 1.9; in experiment [2], 9.

With `C=C(C)C[C@H]1C(=O)N[C@@H](C(C)C)C(=O)N(C)[C@@H](CC(C)C)C(=O)N[C@@H](C)C(=O)N[C@H](C)C(=O)N(C)[C@@H](CC(C)C)C(=O)N(C)[C@@H](CC(C)C)C(=O)N(C)C(C(C)C)C(=O)N(C)[C@@H]([C@H](O)[C@H](C)C/C=C/C)C(=O)N[C@@H](CC)C(=O)N(C)CC(=O)N1C` (single isomer, unassigned), the “Relative IC50” value in the experiment listed under Mus musculus was 1.6; in experiment [1], 1.8; in experiment [2], 4.

Take `C/C=C/C[C@@H](C)[C@@H](O)[C@H]1C(=O)N[C@@H](CC)C(=O)N(C)CC(=O)N(C)[C@@H](CC(C)(C)O)C(=O)N[C@@H](C(C)C)C(=O)N(C)[C@@H](CC(C)C)C(=O)N[C@@H](C)C(=O)N[C@H](C)C(=O)N(C)[C@@H](CC(C)C)C(=O)N(C)[C@@H](CC(C)C)C(=O)N(C)[C@@H](C(C)C)C(=O)N1C`: the figures for the “Relative IC50” value (in the experiment listed under Mus musculus; in experiment [1]; in experiment [2]) were 130, 0.9 and 110, respectively.

Turning to `C/C=C/C[C@@H](C)[C@@H](O)[C@H]1C(=O)N[C@@H](CC)C(=O)N(C)CC(=O)N(C)[C@@H](CC2CC2)C(=O)N[C@@H](C(C)C)C(=O)N(C)[C@@H](CC(C)C)C(=O)N[C@@H](C)C(=O)N[C@H](C)C(=O)N(C)[C@@H](CC(C)C)C(=O)N(C)[C@@H](CC(C)C)C(=O)N(C)C(C(C)C)C(=O)N1C` (single isomer, unassigned), the “Relative IC50” value in the experiment listed under Mus musculus is 5; in experiment [1], 2.8; in experiment [2], 5.3.

In the case of `C/C=C/C[C@@H](C)[C@@H](O)[C@H]1C(=O)N[C@@H](CC)C(=O)N(C)CC(=O)N(C)[C@@H](C(C)C)C(=O)N[C@@H](C(C)C)C(=O)N(C)[C@@H](CC(C)C)C(=O)N[C@@H](C)C(=O)N[C@H](C)C(=O)N(C)[C@@H](CC(C)C)C(=O)N(C)[C@@H](CC(C)C)C(=O)N(C)C(C(C)C)C(=O)N1C` (single isomer, unassigned), the “Relative IC50” value was determined as 130 in the experiment filed under Mus musculus, 0.5 in experiment [1] and 2500 in experiment [2].
